Assay results: US20240269305A1, “STING AGONIST SUITABLE AS PAYLOAD OF ANTIBODY DRUG CONJUGATE” (HITGEN INC., priority 2021, published 2024)

Columns and labels:
STING signaling pathway [1] = assay: THP1-Blue ISG reporter assay (QUANTI-Blue); assay type: cell-based, human
Protocol: (§1) In this experiment, THP1-Blue™ ISG (interferon-stimulated genes) cell line (InvivoGen, catalog number: thp-isg) was used to evaluate the activating of interferon signaling pathway after the treatment by the compounds. THP1-Blue™ ISG cells were cultured using RPMI1640 medium (containing 10% heat-inactivated fetal bovine serum, 100 μg/ml Zeocin™, InvivoGen, catalog number: ant-zn-1). On the first day of the experiment, the compound was dissolved in DMSO as a stock solution, which was then diluted with culture medium to 2× working concentration and then 100 μL per well of the above dilution was added to a 96-well plate; THP1 cells in the logarithmic growth phase were counted and diluted to a concentration of 1*10^6 cells/mL, which was then added at 100 μL per well (1*10^5 cells/well) to the aforementioned 96-well plate containing the compounds. After mixed, the above cells in the 96-well plate were incubated at 37° C. with 5% CO2 for 18 h. On the second day, the above cell culture supernatant was aspirated at 20 μL per well, which was added to a new 96-well plate. And then 180 μL per well of QUANTI-Blue™ solution (InvivoGen, catalog number: rep-qbs1) was added. The above cells in the 96-well plate were incubated at 37° C. for 1 h. OD (620-655 nm) value was read on a Microplate Reader, and the EC50 value was calculated by using GraphPad to fit the dose-effect curve. 50 μL of Celltiter Glo solution (Promega, Cat. No. G756B) was added to the remaining cell culture plates.

[2] = Cytotoxicity in THP1-Blue ISG cells (Celltiter Glo); assay type: cell-based, human; settings: Celltiter Glo luminescence; for CC50 at 18 h: human
Protocol: as §1

STING signaling pathway [3] = assay: Cytokine secretion in PBMC (ELISA); assay type: cell-based; settings: 6 h
Protocol: (§2) The following experiments were performed to determine the activation effect of the compound on the STING signaling pathway in PBMC cells, which mainly using ELISA to detect the secretion of IL-6, TNF-, IFN-, and IFN- in the cell culture supernatant. At the same time, CTG (CellTiter-Glo) was used to detect the survival rate of the cells, and to calculate the half cytotoxic dose of cells CC50.
(§3) The frozen PBMC cells were placed in a 37° C. water bath. After the ice was completely melted, the cells were transferred to 3 ml of RPMI 1640 complete culture medium (containing 10% FBS), and then centrifuged at 1500 rpm for 3 minutes. After removing the supernatant, the cells were re-suspended for counting. 200 μL of 50,000 PBMC cells were added in a 96-well plate, and the compounds to be tested were diluted with different gradient concentrations. After 6 h, 150 μL of the cell supernatant was aspirated, and the concentrations of IL-6, TNF-, IFN-, and IFN- were measured using ELISA kits, and the curves of compound concentration and cytokine release were drawn to calculate the values of EC50. 50 μL of CTG solution was added to the remaining cell culture plate.

STING signaling pathway [4] = assay: IFN-β production in THP1 cells (ELISA); assay type: cell-based; settings: Homo sapiens, read-out: IFN-β EC50
Protocol: In this experiment, the function of sting agonists was evaluated by detecting the changes of IFN-β and CXCL10 (IP10) cytokines which were produced by the stimulation of the compounds to human peripheral blood mononuclear cell line THP1 cell (Shanghai Cell Bank). On the first day of the experiment, ELISA plates were coated according to the instructions of IFN-β (R&D, #DY814-05) and IP10 (BD, #550926) ELISA detection kits. The compound was dissolved in DMSO as a stock solution, which was diluted with culture medium to a 2× working concentration, and then added to a 96-well plate at 100 μL per well; THP1 cells in the logarithmic growth phase were counted and diluted to a concentration of 2*10^6/mL, which was then added at 100 μL per well to the aforementioned 96-well plate containing the compounds. After mixed, the above cells in the 96-well plate were incubated at 37° C. and 5% CO2 for 18 h. On the second day, the above cell culture supernatant was aspirated at 100 μL per well, and then their OD450 values were determined using the IFN-β and IP10 ELISA detection kits respectively. The obtained data was converted to the concentration of IFN-β and IP10 according to the standard curve, and the EC50 values were calculated using GraphPad 5.0 to fit the dose-effect curve.

[5] = Cytotoxicity in PBMC (CellTiter-Glo); assay type: cell-based; settings: PBMC cells, CTG
Protocol: as §2, §3

[6] = ELISA of supernatant, read-out: IL-6 EC50
[7] = ELISA of supernatant, read-out: TNF-α EC50
[8] = THP-1, THP1 cells, 18 h incubation, ELISA of culture supernatant
[9] = Homo sapiens, THP1-Blue ISG cells, 18 h incubation, QUANTI-Blue OD 620-655 nm, read-out: EC50
[10] = ELISA of supernatant, read-out: IFN-β EC50

Q: For `CCc1nc(C)sc1C(=O)Nc1nc2cc(C(N)=O)cc(OCCCN3CCN(C(=O)OCCCNC(=O)OCc4ccc(NC(=O)[C@H](CCCNC(N)=O)NC(=O)[C@@H](NC(=O)CCCCCN5C(=O)C=CC5=O)C(C)C)cc4)CC3)c2n1C/C=C/Cn1c(NC(=O)c2cc(C)nn2CC)nc2cc(C(N)=O)cc(SC)c21` [Example 40], which EC50 (STING signaling pathway [1]; THP1-Blue ISG cells, 18 h incubation, QUANTI-Blue OD 620-655 nm, read-out: EC50) is on record?
A: < 100 nM

Q: And the CC50 ([2]; 18 h)?
A: > 50000 nM

Q: What about the EC50 (STING signaling pathway [3]; [6]) of the same molecule?
A: < 100 nM

Q: What about the EC50 (STING signaling pathway [3]; [7]) of the same molecule?
A: < 100 nM

Q: Which EC50 (STING signaling pathway [4]; [8]) does the source give for `CCc1nc(C)sc1C(=O)Nc1nc2cc(C(N)=O)cc(SC)c2n1C/C=C/Cn1c(NC(=O)c2cc(C)nn2CC)nc2cc(C(N)=O)cc(OCCCN3CCN(C(=O)OCCCC4CCNCC4)CC3)c21` [Example 13] here?
A: 100 to 1000 nM

Q: What about the EC50 (STING signaling pathway [1]; [9]) of the same molecule?
A: < 100 nM

Q: What about the CC50 at 18 h [2] of the same molecule?
A: > 50000 nM

Q: And the EC50 (STING signaling pathway [3]; [10])?
A: 100 to 1000 nM

Q: And the EC50 (STING signaling pathway [3]; [6])?
A: < 100 nM

Q: And the EC50 (STING signaling pathway [3]; [7])?
A: < 100 nM

Q: What about the CC50 at 6 h [5] of the same molecule?
A: > 50000 nM

Q: With `CCc1nc(C)sc1C(=O)Nc1nc2cc(C(N)=O)cc(OCCCN3CCN(C(=O)OCCCN4CCNCC4)CC3)c2n1C/C=C/Cn1c(NC(=O)c2cc(C)nn2CC)nc2cc(C(N)=O)cc(SC)c21` [Example 6] as the molecule, how does the EC50 (STING signaling pathway [4]; [8]) read?
A: 100 to 1000 nM

Q: For `CCc1nc(C)sc1C(=O)Nc1nc2cc(C(N)=O)cc(OCCCN3CCNCC3)c2n1C/C=C/Cn1c(NC(=O)c2cc(C)nn2CC)nc2cc(C(N)=O)cc(OC)c21` [Example 21], which EC50 (STING signaling pathway [1]; [9]) is on record?
A: < 100 nM

Q: What about the EC50 (STING signaling pathway [3]; [10]) of the same molecule?
A: 100 to 1000 nM

Q: What about the EC50 (STING signaling pathway [3]; [6]) of the same molecule?
A: 100 to 1000 nM

Q: What about the EC50 (STING signaling pathway [3]; [7]) of the same molecule?
A: < 100 nM

Q: Which EC50 (STING signaling pathway [4]; [8]) does the source give for `CCc1nc(C)sc1C(=O)Nc1nc2cc(C(N)=O)cc(OCCCN3CCN(CCN)CC3)c2n1C/C=C/Cn1c(NC(=O)c2cc(C)nn2CC)nc2cc(C(N)=O)cc(SC)c21` [Example 12] here?
A: > 1000 nM

Q: With `CCc1nc(C)sc1C(=O)Nc1nc2cc(C(N)=O)cc(OCCCN3CCN(C(=O)CCCNC)CC3)c2n1C/C=C/Cn1c(NC(=O)c2cc(C)nn2CC)nc2cc(C(N)=O)cc(SC)c21` [Example 2] as the molecule, how does the EC50 (STING signaling pathway [4]; [8]) read?
A: 100 to 1000 nM

Q: And the EC50 (STING signaling pathway [1]; [9])?
A: < 100 nM

Q: And the CC50 at 18 h [2]?
A: > 50000 nM

Q: What about the EC50 (STING signaling pathway [3]; [10]) of the same molecule?
A: 100 to 1000 nM

Q: What about the EC50 (STING signaling pathway [3]; [6]) of the same molecule?
A: 100 to 1000 nM

Q: What about the EC50 (STING signaling pathway [3]; [7]) of the same molecule?
A: 100 to 1000 nM

Q: What about the CC50 at 6 h [5] of the same molecule?
A: > 40000 nM

Q: For `CCc1nc(C)sc1C(=O)Nc1nc2cc(C(N)=O)cc(OCCCN3CCN(C(=O)OCCCN)CC3)c2n1C/C=C/Cn1c(NC(=O)c2cc(C)nn2CC)nc2cc(C(N)=O)cc(SC)c21` [Example 10], which EC50 (STING signaling pathway [4]; THP-1, 18 h) is on record?
A: 100 to 1000 nM

Q: What about the EC50 (STING signaling pathway [1]; Homo sapiens, THP1-Blue ISG, 18 h) of the same molecule?
A: < 100 nM

Q: And the CC50 at 18 h [2]?
A: > 50000 nM

Q: And the EC50 (STING signaling pathway [3]; read-out: IFN-β EC50)?
A: 100 to 1000 nM

Q: What about the EC50 (STING signaling pathway [3]; read-out: IL-6 EC50) of the same molecule?
A: 100 to 1000 nM

Q: What about the EC50 (STING signaling pathway [3]; read-out: TNF-α EC50) of the same molecule?
A: 100 to 1000 nM

Q: What about the CC50 at 6 h [5] of the same molecule?
A: > 40000 nM

Q: Which EC50 (STING signaling pathway [4]; [8]) does the source give for `CCc1nc(C)sc1C(=O)Nc1nc2cc(C(N)=O)cc(OCCCN3CCOCC3)c2n1C/C=C/Cn1c(NC(=O)c2c(F)c(C)nn2CC)nc2cc(C(N)=O)cc(SCCCNC(=O)OCCCC3CCNCC3)c21` [Example 18] here?
A: > 1000 nM

Q: With `CCc1nc(C)sc1C(=O)Nc1nc2cc(C(N)=O)cc(OCCCN3CCN(C(=O)OCCCC4CCNCC4)CC3)c2n1C/C=C/Cn1c(NC(=O)c2cc(C)nn2CC)nc2cc(C(N)=O)cc(SC)c21` [Example 8] as the molecule, how does the EC50 (STING signaling pathway [4]; THP-1, 18 h) read?
A: 100 to 1000 nM
